Legend:
[1] = test system: HeLa; assay: MTT cell growth assay, HeLa; assay type: cell-based; details: Homo sapiens, 48 or 72 h, read-out: Cell line inhibition of growth GI50 HeLa
Method: (§1) To probe further the effect of compound 2 and related compounds 1, 3, 5, 6 and 7, various concentrations of these compounds were added to 13 different cell lines and incubated for 48 or 72 h. An MTT assay was then performed to evaluate cell growth and survival.

[2] = test system: Ub-G76V-GFP/HeLa cells; assay: Degradation of pre-accumulated Ub-G76V-GFP (cycloheximide chase after MG132 washout); assay type: cell-based; details: up to 10 μM
Method: To evaluate this possibility, an assay was developed to determine the rate of degradation of pre-accumulated Ub-G76V-GFP molecules. […] Cells were then washed with PBS three times remove the MG132. Cells were then refreshed by adding DMEM containing cycloheximide (50 μg/mL; to block production of more Ub-G76V-GFP) and test compounds (0˜10 μM) were added into cells. Eight 96-well plates were prepared and one of the plates was imaged at 25, 50, 70, 100, 110, 125, 145, or 170 min after washing with PBS three times. After washing out MG132, degradation of pre-accumulated Ub-G76V-GFP appears to follow pseudo-first order reaction. Rate constant (K; 1/min) can be determined from the slope of plotting Ln (Fold Accumulation) versus Time (min) (see FIG. 17 and FIG. 18).
Ub-G76V-GFP/HeLa cells were treated with MG132 (2 μM) for 1 h and washed with PBS three times. DMEM containing cycloheximide (50 μg/mL) and compound 8 (0-10 μM) was added into cells. Eight 96-well plates were prepared and one of the plates was imaged at 25, 50, 70, 100, 110, 125, 145, or 170 min after washing with PBS three times.

[3] = test system: HTC116 WT; assay: MTT cell growth assay, HTC116 WT; assay type: cell-based; details: 48 or 72 h, read-out: Cell line inhibition of growth GI50 HTC116 WT
Method: as §1

[4] = test system: RL; assay: MTT cell growth assay, RL; assay type: cell-based; details: Homo sapiens, 48 or 72 h, read-out: Cell line inhibition of growth GI50 RL
Method: as §1

[5] = test system: 293; assay: MTT cell growth assay, 293; assay type: cell-based; details: Homo sapiens, HEK293, 48 or 72 h, read-out: Cell line inhibition of growth GI50 293
Method: as §1

[6] = biological target: wild type murine p97 (Mus musculus, UniProt Q01853); assay: In vitro ATP hydrolysis (malachite green ATPase assay), wild type murine p97; assay type: biochemical; details: 200 nM p97, 20 min preincubation at 23° C., malachite green; read-out: In vitro ATP Hydrolysis Activity IC50 WT-mP97
wild type murine p97, sequence (Q01853 whole entry): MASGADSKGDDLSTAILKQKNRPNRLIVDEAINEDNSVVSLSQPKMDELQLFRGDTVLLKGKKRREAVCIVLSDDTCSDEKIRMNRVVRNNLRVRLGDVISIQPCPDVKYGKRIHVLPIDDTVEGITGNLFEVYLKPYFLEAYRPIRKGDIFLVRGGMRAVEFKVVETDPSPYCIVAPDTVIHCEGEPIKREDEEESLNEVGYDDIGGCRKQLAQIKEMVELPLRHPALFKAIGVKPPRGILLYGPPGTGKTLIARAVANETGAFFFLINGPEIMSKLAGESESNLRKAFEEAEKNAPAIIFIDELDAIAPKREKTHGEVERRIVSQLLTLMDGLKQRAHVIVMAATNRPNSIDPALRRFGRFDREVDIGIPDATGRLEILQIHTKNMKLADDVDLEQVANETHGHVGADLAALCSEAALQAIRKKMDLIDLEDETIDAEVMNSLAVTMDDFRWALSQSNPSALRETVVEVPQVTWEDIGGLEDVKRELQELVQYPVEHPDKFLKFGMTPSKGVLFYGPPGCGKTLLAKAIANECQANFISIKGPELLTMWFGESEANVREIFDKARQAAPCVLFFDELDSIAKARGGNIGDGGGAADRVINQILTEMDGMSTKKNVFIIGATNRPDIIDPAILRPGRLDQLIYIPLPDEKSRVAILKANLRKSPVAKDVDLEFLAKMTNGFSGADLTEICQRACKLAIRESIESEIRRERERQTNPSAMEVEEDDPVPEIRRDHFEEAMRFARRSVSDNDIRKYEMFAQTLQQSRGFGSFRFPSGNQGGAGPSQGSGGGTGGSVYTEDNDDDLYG
Method: Compounds were tested for their ability to inhibit the ATPase activity of purified wild type murine p97 and T532C-Cdc48, a mutant of yeast Cdc48 in which the residue analogous to cysteine 522, threonine 532, was converted to cysteine.

[7] = test system: Molt4; assay: MTT cell growth assay, Molt4; assay type: cell-based; details: Homo sapiens, MOLT-4, 48 or 72 h, read-out: Cell line inhibition of growth GI50 Molt4
Method: as §1

[8] = test system: 13 different cell lines; assay: MTT cell growth assay, summary across 13 different cell lines; assay type: cell-based; details: vs compound 2, 13 cell lines
Method: as §1
Data for the assay with MCF-7 cells and HeLa cells is shown in FIG. 21 and FIG. 22, respectively. […] Thus, compound 2 blocks p97-dependent processes in cells and also blocks the proliferation of cancer cell lines, illustrating its potential utility as an anti-proliferative drug to treat cancer.

[9] = test system: HCT116 p53−/−; assay: MTT cell growth assay, HCT116 p53−/−; assay type: cell-based; details: Homo sapiens, HCT-116, 48 or 72 h, read-out: Cell line inhibition of growth GI50 HCT116 p53−/−
Method: as §1

[10] = test system: CCRF-CEM; assay: MTT cell growth assay, CCRF-CEM; assay type: cell-based; details: Homo sapiens, 48 or 72 h, read-out: Cell line inhibition of growth GI50 CCRF-CEM
Method: as §1

[11] = test system: PC3; assay: MTT cell growth assay, PC3; assay type: cell-based; details: Homo sapiens, PC-3, 48 or 72 h, read-out: Cell line inhibition of growth GI50 PC3
Method: as §1

[12] = test system: HeLa cells; assay: Accumulation of high molecular weight ubiquitin conjugates (anti-ubiquitin immunoblot), HeLa cells; assay type: cell-based; details: 1 h at 37° C.
Description: (§2) To evaluate whether compound 2 can target p97 activity in cells, we sought to determine whether this compound induces accumulation of high molecular weight ubiquitin conjugates, since it is known that RNAi-mediated knockdown of p97 in mammalian cells has this effect (Wojcik, C. et al. J. Cell Sci. (2004) 117, 281-292). As a positive control for this experiment, the proteasome inhibitor MG132 was used. […] The cells were then harvested, lysed, and centrifuged to generate soluble and insoluble fractions. These fractions were then immunoblotted with anti-ubiquitin antibodies to detect accumulation of high molecular weight conjugates. Blots were also probed with anti-PSTAIRE antibodies as a loading control. […] This effect is particularly pronounced in the insoluble fraction.
(§3) To evaluate whether compound 8 can target p97 activity in cells, it was determined whether this compound induces accumulation of high molecular weight ubiquitin conjugates, since it is known that RNAi-mediated knockdown of p97 in mammalian cells has this effect (Wojcik, C. et al. J. Cell Sci. (2004) 117, 281-292). The proteasome inhibitor bortezomib (velcade) was employed as a positive control for this experiment. HeLa (FIG. 25) or RPMI8226 (FIG. 26) cells were treated with Velcade, compound 8, or a combination thereof for 1 h at 37° C. The cells were then harvested and cell lysates were immunoblotted with anti-ubiquitin antibodies to detect accumulation of high molecular weight conjugates. Blots were also probed with anti-PSTAIRE antibodies as a loading control.

[13] = test system: LNCaP; assay: MTT cell growth assay, LNCaP; assay type: cell-based; details: Homo sapiens, 48 or 72 h, read-out: Cell line inhibition of growth GI50 LNCaP
Method: as §1

[14] = test system: DU145; assay: MTT cell growth assay, DU145; assay type: cell-based; details: Homo sapiens, DU-145, 48 or 72 h, read-out: Cell line inhibition of growth GI50 DU145
Method: as §1

[15] = test system: MDAMB-231; assay: MTT cell growth assay, MDAMB-231; assay type: cell-based; details: Homo sapiens, MDA-MB-231, 48 or 72 h, read-out: Cell line inhibition of growth GI50 MDAMB-231
Method: as §1

[16] = test system: RPMI8226; assay: MTT cell growth assay, RPMI8226; assay type: cell-based; details: Homo sapiens, RPMI-8226, 48 or 72 h, read-out: Cell line inhibition of growth GI50 RPMI8226
Method: as §1

[17] = test system: MCF7; assay: MTT cell growth assay, MCF7; assay type: cell-based; details: Homo sapiens, 48 or 72 h, read-out: Cell line inhibition of growth GI50 MCF7
Method: as §1

[18] = test system: RPMI8226 cells; assay: Accumulation of high molecular weight ubiquitin conjugates (anti-ubiquitin immunoblot), RPMI8226 cells; assay type: cell-based; details: 1 h at 37° C.
Description: as §2, §3

[19] = test system: MRC5-WT; assay: CellTiter-Glo growth inhibition, parental MRC5 cells; assay type: cell-based; details: Homo sapiens, 48 h at 37° C., read-out: Cell line inhibition of growth GI50 MRC5-WT
[20] = test system: MRC5-SV40; assay: CellTiter-Glo growth inhibition, MRC5 cells engineered to express SV40; assay type: cell-based

`CC(C)(C)n1nc(-c2ccccc2)c2c(N)ncnc21` [Compound 1] was tested. Which GI50 [1] did it give?
The GI50 was 2 ± 1 µM.

And the “effect on the decay of Ub-G76V-GFP” value [2]?
Its value is “no effect”.

And the GI50 [3]?
The GI50 was 10 ± 2 µM.

What about the GI50 [4] of the same compound?
The GI50 was 21 ± 10 µM.

What about the GI50 [5] of the same compound?
The GI50 was 92 ± 14 µM.

And the IC50 [6]?
Its IC50 is over 100 µM.

What about the GI50 [7] of the same compound?
Its GI50 is 7.4 ± 4.7 µM.

And the “GI50 higher than that of compound 2 across the same cell lines” value [8]?
Its value is 3 to 18 fold.

And the GI50 [9]?
The GI50 was 12 ± 4 µM.

And the GI50 [10]?
The GI50 was 15 ± 5 µM.

And the GI50 [11]?
The GI50 was 11 ± 1 µM.

What about the “accumulation of high molecular weight ubiquitin conjugates, HeLa cells” value [12] of the same compound?
The value was “not”.

What about the GI50 [13] of the same compound?
The GI50 was 38 ± 8 µM.

What about the GI50 [14] of the same compound?
Its GI50 is 18 ± 4 µM.

And the GI50 [15]?
Its GI50 is 19 ± 8 µM.

And the GI50 [16]?
Its GI50 is 1.1 ± 0.7 µM.

And the GI50 [17]?
Its GI50 is 4 ± 2 µM.

What about the “accumulation of high molecular weight ubiquitin conjugates, RPMI8226 cells” value [18] of the same compound?
Its value is “not”.

Which results are given for `CC(C)C[C@H](NC(=O)[C@H](Cc1ccccc1)NC(=O)c1cnccn1)B(O)O` [Velcade, reference compound]?
GI50 [19]: 0.2 ± 0.07 µM; GI50 ([20]; Homo sapiens, MRC5, 48 h at 37° C., CellTiter-Glo, read-out: Cell line inhibition of growth GI50 MRC5-SV40): 0.1 ± 0.01 µM; greater sensitivity of SV40-transformed cells than WT cell line ([20]; MRC5-SV40 vs MRC5-WT GI50): 2 fold

— US9089572B2, “Inhibitors of p97” (California Institute of Technology, priority 2008, dated 2015)
